Our source for the GI50 and TGI values is PubChem BioAssay (NCI).

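Following 48 hours of exposure in 96-well plates, responses at five concentrations were used to interpolate endpoints linearly. Abbreviation: GI50, concentration required for 50% inhibition of growth. Definition used: TGI = concentration required for complete inhibition of growth.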

Among the test systems are HCT-15 colon; HOP-62 NSCLC; MOLT-4 leukemia; NCI-H23 lung; OVCAR-5 ovarian; RPMI-8226 leukemia; SF-539 CNS; SK-MEL-28 melanoma; SK-MEL-5 melanoma; SN12C renal.
Experiment in all cases: NCI anticancer screen, dose series, 48 h

On to `Cc1cc(N/N=C/c2nc(-c3ccc(Cl)cc3)oc2C)c2cc(Br)ccc2n1`, for which the GI50 is 1.79 µM in the assay with HCT-15 colon; 1.87 µM with HOP-62 NSCLC; 2.66 µM in the assay with MOLT-4 leukemia; 6 µM in the assay with NCI-H23 lung; 10.1 µM in the assay with OVCAR-5 ovarian; 1.95 µM in the assay on RPMI-8226 leukemia. The GI50 with SF-539 CNS is 1.9 µM; in the assay on SK-MEL-28 melanoma, 2.07 µM; in the assay on SK-MEL-5 melanoma, 11.7 µM; in the assay with SN12C renal, 2.05 µM. Also, the TGI in the assay on HCT-15 colon turned out to be 4.42 µM; in the assay on HOP-62 NSCLC, 3.94 µM; in the assay on MOLT-4 leukemia, 13.5 µM; with NCI-H23 lung, 23.6 µM; in the assay with OVCAR-5 ovarian it was 21.9 µM; in the assay on RPMI-8226 leukemia it was 4.81 µM. In addition, the TGI with SF-539 CNS is 3.69 µM; in the assay with SK-MEL-28 melanoma it was 4.49 µM; in the assay with SK-MEL-5 melanoma, 23.9 µM; with SN12C renal, 4.38 µM.
Turning to `c1cc2c3c(c1)c1cc4c(cc1c[n+]3CC2)OCO4`, the TGI was greater than 225 µM in the assay on HCT-15 colon; 15.4 µM in the assay on HOP-62 NSCLC; 9.96 µM in the assay with MOLT-4 leukemia; 13.8 µM in the assay on NCI-H23 lung; 24.9 µM in the assay on OVCAR-5 ovarian; 14 µM in the assay on RPMI-8226 leukemia. Further, the TGI in the assay on SF-539 CNS worked out at 15.4 µM; with SK-MEL-28 melanoma, 12.3 µM; in the assay on SK-MEL-5 melanoma, 9.08 µM; in the assay on SN12C renal, 9.01 µM.
`c1ccc2c(c1)NCc1cc3ccccc3nc1O2`: the TGI in the assay with HCT-15 colon, in the assay with HOP-62 NSCLC, with MOLT-4 leukemia, in the assay with NCI-H23 lung, in the assay on OVCAR-5 ovarian and in the assay on RPMI-8226 leukemia was greater than 100 µM in each case. In addition, the TGI in the assay with SF-539 CNS, in the assay on SK-MEL-28 melanoma, in the assay on SK-MEL-5 melanoma and with SN12C renal was greater than 100 µM throughout.
For the compound `CCOc1cc(/C=C/C(=O)C(C(=O)/C=C/c2ccc(OC(=O)CNc3nc4ccccc4[nH]3)c(OCC)c2)C(=O)CNc2nc3ccccc3[nH]2)ccc1OC(=O)CNc1nc2ccccc2[nH]1`, the GI50 was 2.53 µM with HCT-15 colon; 4.23 µM with HOP-62 NSCLC; 1.47 µM in the assay with MOLT-4 leukemia; 2.5 µM in the assay on NCI-H23 lung; 2.09 µM with OVCAR-5 ovarian; 0.754 µM in the assay on RPMI-8226 leukemia. For the same compound, the GI50 in the assay with SF-539 CNS was 1.61 µM; in the assay with SK-MEL-28 melanoma, 1.77 µM; with SK-MEL-5 melanoma, 1.6 µM; with SN12C renal it was 2.21 µM. Moreover, the TGI in the assay with HCT-15 colon is 7.87 µM; in the assay on HOP-62 NSCLC, greater than 100 µM; with MOLT-4 leukemia, 3.04 µM; in the assay on NCI-H23 lung, 9.71 µM; with OVCAR-5 ovarian it was 5.22 µM; in the assay on RPMI-8226 leukemia, 2.51 µM. Besides, the TGI in the assay with SF-539 CNS amounted to 3.1 µM; in the assay on SK-MEL-28 melanoma, 3.56 µM; in the assay on SK-MEL-5 melanoma, 3.02 µM; with SN12C renal it was 5.61 µM.
For the compound `COc1ccc(C2=[S+]C(c3ccccc3)(c3ccccc3)c3ccccc32)cc1`, the TGI turned out to be 54.6 µM in the assay on HCT-15 colon; 79.3 µM in the assay with HOP-62 NSCLC; 61 µM in the assay on MOLT-4 leukemia; 74.8 µM in the assay with NCI-H23 lung; 49.5 µM with OVCAR-5 ovarian; 53.9 µM in the assay with RPMI-8226 leukemia. Also, the TGI turned out to be 40.4 µM with SF-539 CNS, 58.5 µM in the assay with SK-MEL-28 melanoma, 31.5 µM with SK-MEL-5 melanoma and 37.1 µM in the assay with SN12C renal.
In the case of `O=C(N/N=C\c1cccc2ccccc12)Nc1ccccc1`, the TGI in the assay with HCT-15 colon, with HOP-62 NSCLC, in the assay with MOLT-4 leukemia, with NCI-H23 lung, with OVCAR-5 ovarian and in the assay with RPMI-8226 leukemia was greater than 100 µM in each case. Moreover, the TGI with SK-MEL-28 melanoma, in the assay on SK-MEL-5 melanoma and with SN12C renal was greater than 100 µM each time.
Take `C/C(=N\NC(=O)c1ccc(Cl)cc1)c1nc2ncccc2[nH]1`: the TGI in the assay with HCT-15 colon was greater than 100 µM; with HOP-62 NSCLC, greater than 100 µM; in the assay on MOLT-4 leukemia, 90.6 µM; with NCI-H23 lung, greater than 100 µM; in the assay on OVCAR-5 ovarian, greater than 100 µM; with RPMI-8226 leukemia, greater than 100 µM. The TGI with SF-539 CNS was 40.3 µM; in the assay with SK-MEL-28 melanoma, greater than 100 µM; in the assay with SK-MEL-5 melanoma, 55.6 µM; with SN12C renal, greater than 100 µM.
`Cc1cn(-c2cccc(NC(=O)c3ccc(C)c(Nc4nccc(-c5cccnc5)n4)c3)c2)cn1`: the GI50 was 2.73 µM in the assay on HCT-15 colon; 2 µM in the assay on HOP-62 NSCLC; 1.92 µM with MOLT-4 leukemia; 3.01 µM in the assay with NCI-H23 lung; 1.88 µM with OVCAR-5 ovarian; 1.87 µM in the assay with RPMI-8226 leukemia. Also, the GI50 in the assay on SF-539 CNS is 1.45 µM; in the assay on SK-MEL-28 melanoma, 1.8 µM; in the assay on SK-MEL-5 melanoma it was 2.16 µM; in the assay with SN12C renal it was 2.1 µM. The TGI with HCT-15 colon was determined as 8.26 µM; with HOP-62 NSCLC, 3.77 µM; in the assay on MOLT-4 leukemia it was 6.56 µM; with NCI-H23 lung, 10 µM; with OVCAR-5 ovarian it was 3.68 µM; with RPMI-8226 leukemia, 5.41 µM. Moreover, the TGI in the assay with SF-539 CNS stood at 2.97 µM; with SK-MEL-28 melanoma it was 3.18 µM; in the assay with SK-MEL-5 melanoma it was 7.46 µM; with SN12C renal, 4.7 µM.
Consider `CCOC(=O)/C=C/c1c(C)[nH]c(=O)[nH]c1=O`, for which the TGI with HCT-15 colon, in the assay with HOP-62 NSCLC, in the assay with MOLT-4 leukemia, in the assay with NCI-H23 lung, with OVCAR-5 ovarian and with RPMI-8226 leukemia was greater than 250 µM throughout. Moreover, the TGI with SF-539 CNS, in the assay on SK-MEL-28 melanoma, with SK-MEL-5 melanoma and with SN12C renal was greater than 250 µM in each case.
As to `COc1cc(-c2ccc(N=Nc3ccc4c(S(=O)(=O)O)cc(S(=O)(=O)O)c(N)c4c3O)c(OC)c2)ccc1N=Nc1ccc2c(S(=O)(=O)O)cc(S(=O)(=O)O)c(N)c2c1O`, the TGI with HCT-15 colon, in the assay with HOP-62 NSCLC, with MOLT-4 leukemia, with NCI-H23 lung, in the assay on OVCAR-5 ovarian and in the assay with RPMI-8226 leukemia was greater than 100 µM throughout. Besides, the TGI in the assay with SF-539 CNS, with SK-MEL-28 melanoma, in the assay on SK-MEL-5 melanoma and with SN12C renal was greater than 100 µM each time.
On to `O=C1CCC[C@H]2O[C@@H](COC(=O)c3ccccc3)C[C@H]2O1`, for which the TGI in the assay on HCT-15 colon, with HOP-62 NSCLC, in the assay with MOLT-4 leukemia, in the assay on NCI-H23 lung, in the assay on OVCAR-5 ovarian and in the assay with RPMI-8226 leukemia was greater than 100 µM throughout. Further, the TGI in the assay with SF-539 CNS, with SK-MEL-28 melanoma, in the assay with SK-MEL-5 melanoma and in the assay on SN12C renal was greater than 100 µM each time.
Take `Cc1ccc(Cl)cc1N=NC(=O)NNc1cc(Cl)ccc1C`: the TGI with HCT-15 colon was 95.4 µM; with HOP-62 NSCLC it was 23.6 µM; with MOLT-4 leukemia, greater than 100 µM; in the assay on NCI-H23 lung, 44.3 µM; in the assay on OVCAR-5 ovarian, 32.7 µM; with RPMI-8226 leukemia, greater than 100 µM. The values for the TGI with SK-MEL-28 melanoma, with SK-MEL-5 melanoma and in the assay on SN12C renal were 38.9 µM, 29.1 µM and 80.8 µM, respectively.
As to `COc1cccc2c1C(=O)c1c(O)c3c(c(O)c1C2=O)C[C@@](O)(C(=O)COC(=O)c1ccccc1)C[C@@H]3OC1CC(N)C(O)C(C)O1` (some centres undefined), the GI50 is 0.451 µM with HCT-15 colon; 0.0302 µM in the assay on MOLT-4 leukemia; 0.4 µM in the assay on OVCAR-5 ovarian; 0.193 µM in the assay with RPMI-8226 leukemia; 0.254 µM in the assay with SF-539 CNS; 0.534 µM in the assay with SK-MEL-28 melanoma. Further, the GI50 was 0.2 µM with SK-MEL-5 melanoma and 0.0936 µM with SN12C renal. Also, the TGI with HCT-15 colon is 1.76 µM; with MOLT-4 leukemia, 0.275 µM; in the assay with OVCAR-5 ovarian it was 1.64 µM; in the assay with RPMI-8226 leukemia, 0.61 µM; in the assay on SF-539 CNS, 1.13 µM; in the assay with SK-MEL-28 melanoma, 1.95 µM. The TGI in the assay on SK-MEL-5 melanoma was determined as 0.712 µM; with SN12C renal, 1.12 µM.
Regarding `CCOC(=O)NC(Nc1cc(Cl)ccc1OC)(C(F)(F)F)C(F)(F)F`, the TGI with HCT-15 colon, in the assay with HOP-62 NSCLC, with MOLT-4 leukemia, in the assay with NCI-H23 lung, in the assay on OVCAR-5 ovarian and with RPMI-8226 leukemia was greater than 100 µM throughout. Further, the TGI in the assay with SF-539 CNS, in the assay with SK-MEL-28 melanoma, with SK-MEL-5 melanoma and in the assay with SN12C renal was greater than 100 µM each time.
